In article PMC3909880 (Nature communications, 2013):
Values after ≈ are worked out from the molar mass of the structure shown.

What was measured:
M. tuberculosis H37Rv [1] = experiment: microbe, parasite or virus in culture; assay type: cell-based, Mycobacterium tuberculosis; details: for MIC: Mycobacterium tuberculosis, H37RV, read-out: MIC for H37Rv; for MIC for H37Rv: M. tuberculosis H37Rv parental strain
[2] = test system: M. tuberculosis strains H37Rv, V4207, V2475, KZN494, TF274, R506; details: MDR strains V2475 and KZN494; cited from earlier work
M. tuberculosis H37Rv [3] = assay type: in vivo, Mycobacterium tuberculosis; details: 10 mg/kg oral gavage daily (5 days per week), BALB/c mice

COc1c(N2C[C@@H]3CCCN[C@@H]3C2)c(F)cc2c(=O)c(C(=O)O)cn(C3CC3)c12 [Moxifloxacin]
MIC (M. tuberculosis H37Rv [1]): 0.0625 to 0.125 µg/mL (≈ 0.156 to 0.311 µM)

NC[C@H]1O[C@H](O[C@H]2[C@H](O)[C@@H](O[C@H]3O[C@H](CO)[C@@H](O)[C@H](N)[C@H]3O)[C@H](N)C[C@@H]2N)[C@H](O)[C@@H](O)[C@@H]1O [Kanamycin]
MIC for H37Rv (M. tuberculosis H37Rv [1]): 2 µg/mL

C[C@H]1COc2c(N3CCN(C)CC3)c(F)cc3c(=O)c(C(=O)O)cn1c23 [Levofloxacin]
MIC (M. tuberculosis H37Rv [1]): 0.25 µg/mL (≈ 0.692 µM)

CC(C)=CCC/C(C)=C/CNCCNC1C2CC3CC(C2)CC1C3 (centres unmarked) [SQ109]
MIC (M. tuberculosis H37Rv [1]): 0.25 µg/mL (≈ 0.756 µM)

CC[C@@H](CO)NCCN[C@@H](CC)CO [Ethambutol]
MIC (M. tuberculosis H37Rv [1]): 1 µg/mL (≈ 4.89 µM)

Capreomycin
MIC for H37Rv (M. tuberculosis H37Rv [1]): 1 µg/mL

CO[C@H]1/C=C/O[C@@]2(C)Oc3c(C)c(O)c4c(O)c(c(/C=N/N5CCN(C)CC5)c(O)c4c3C2=O)NC(=O)/C(C)=C\C=C\[C@H](C)[C@H](O)[C@@H](C)[C@@H](O)[C@@H](C)[C@H](OC(C)=O)[C@@H]1C [Rifampin]
MIC (M. tuberculosis H37Rv [1]): 0.125 µg/mL (≈ 0.152 µM)
Susceptibility of the MDR strains [2]: resistant

NCC[C@H](O)C(=O)N[C@@H]1C[C@H](N)[C@@H](O[C@H]2O[C@H](CN)[C@@H](O)[C@H](O)[C@H]2O)[C@H](O)[C@H]1O[C@H]1O[C@H](CO)[C@@H](O)[C@H](N)[C@H]1O [Amikacin]
MIC (M. tuberculosis H37Rv [1]): 1 µg/mL (≈ 1.71 µM)

NNC(=O)c1ccncc1 [Isoniazid]
Mean lung CFU counts (standard deviation), Day 7 (M. tuberculosis H37Rv [3]): 5.508 (0.124) log10 CFU/lung
Mean lung CFU counts (standard deviation), Day 14 (M. tuberculosis H37Rv [3]): 5.266 (0.089) log10 CFU/lung
Mean lung CFU counts (standard deviation), Day 28 (M. tuberculosis H37Rv [3]): 4.561 (0.088) log10 CFU/lung
MIC (M. tuberculosis H37Rv [1]): 0.04 µg/mL (≈ 0.292 µM)
Susceptibility of the MDR strains [2]: resistant
